In patent US20110171683A1, “METHODS AND COMPOSITIONS FOR ENUMERATING ANTIBIOTIC-RESISTANT MICROORGANISMS” (priority 2008, published 2011):

System: methicillin-resistant Staphylococcus aureus strain 560
Test: Colony counts on PETRIFILM plates and blood agar plates containing cefoxitin or oxacillin
Type: cell-based
Details: conclusion in words from Tables 1 and 2
Procedure: PETRIFILM Aerobic Count Plates were obtained from 3M Company (St. Paul, Minn.). DIFCO dehydrated tryptic soy agar (TSA) was obtained from BD Diagnostics (Sparks, Md.). Defibrinated sheep blood was obtained from Remel, Inc. (Lenexa, Kans.).
Phosphate-buffered saline (PBS), pH 7.5, was prepared from a 10× concentrate (OmniPur 6505 buffered saline; EMD Chemicals, Inc.; Gibbstown, N.J.) and was sterilized by autoclaving. Antibiotic stock solutions were prepared in deionized water and were sterilized by passage through a 0.22 μm filter.
Sheep blood agar containing cefoxitin (SBA-Cf) was prepared to compare the recovery of antibiotic resistant microorganisms on agar media to the recovery of the antibiotic-resistant microorganisms in a thin-film culture device. Twenty grams of dehydrated TSA was mixed with 475 mL of deionized water and autoclaved. The molten agar was tempered at 50° C. Twenty-five milliliters of defibrinated sheep blood was added to the agar (to yield a final concentration of 5% sheep blood) and swirled to mix. Cefoxitin stock solution (0.5 mL of 4 mg/mL) was added to the agar and swirled to mix. […]
Bacterial strains were inoculated into tryptic soy broth and were incubated overnight at 37° C. […] All plates were incubated at 35° C. and the colonies on each plate were counted at 24±2 hours and 48±4 hours.

CO[C@@]1(NC(=O)Cc2cccs2)C(=O)N2C(C(=O)O)=C(COC(N)=O)CS[C@@H]21 [cefoxitin]
Sensitivity or resistance of strain 560 to the antibiotic: sensitive

Cc1onc(-c2ccccc2)c1C(=O)N[C@@H]1C(=O)N2[C@@H]1SC(C)(C)[C@@H]2C(=O)O [oxacillin]
Sensitivity or resistance of strain 560 to the antibiotic: resistant
